pIC50, pKi: −log10 of the molar value. Activity calls are given as the source filed them. The rule behind the calls is not given here.
Tests used:
Kallikrein-5 [1] = target: T1, Kallikrein-5 (Homo sapiens, UniProt Q9Y337); assay: Inhibition of human kallikrein 5 using Abz-KLRSSKQ-EDDnp as substrate by spectrofluorimetric assay
T1 sequence (Q9Y337 whole entry): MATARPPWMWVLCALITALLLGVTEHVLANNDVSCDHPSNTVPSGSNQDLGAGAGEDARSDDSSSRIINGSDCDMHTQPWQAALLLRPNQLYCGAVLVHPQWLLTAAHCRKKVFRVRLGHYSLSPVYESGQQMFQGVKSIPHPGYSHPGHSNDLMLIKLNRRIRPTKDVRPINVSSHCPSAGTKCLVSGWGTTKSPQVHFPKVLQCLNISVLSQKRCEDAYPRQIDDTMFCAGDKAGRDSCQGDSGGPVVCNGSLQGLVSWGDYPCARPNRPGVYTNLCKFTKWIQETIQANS

Kallikrein-7 [2] = target: T2, Kallikrein-7 (Homo sapiens, UniProt P49862); assay: Inhibition of human kallikrein 7 using Abz-KLYSSKQ-EDDnp as substrate by Lineweaver-Burk plot analysis
Target sequence in this assay (P49862 whole entry): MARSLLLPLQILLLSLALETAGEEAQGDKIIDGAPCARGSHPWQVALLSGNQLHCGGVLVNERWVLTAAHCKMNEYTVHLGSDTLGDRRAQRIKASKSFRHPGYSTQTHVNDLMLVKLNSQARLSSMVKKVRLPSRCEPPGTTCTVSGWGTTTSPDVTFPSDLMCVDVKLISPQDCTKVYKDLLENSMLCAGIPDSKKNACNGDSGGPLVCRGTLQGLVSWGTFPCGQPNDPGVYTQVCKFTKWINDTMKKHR

Kallikrein-7 [3] = target: T2, Kallikrein-7; assay: Inhibition of human kallikrein 7 using Abz-KLYSSKQ-EDDnp as substrate by spectrofluorimetric assay
Target sequence in this assay (P49862 whole entry): as above

Kallikrein-5 [4] = target: T1, Kallikrein-5; assay: Inhibition of human kallikrein 5 using Abz-KLRSSKQ-EDDnp as substrate by Lineweaver-Burk plot analysis
Kallikrein-7 [5] = target: T2, Kallikrein-7; assay: Competitive inhibition of human kallikrein 7 using Abz-KLYSSKQ-EDDnp as substrate by Lineweaver-Burk plot analysis
Target sequence in this assay (P49862 30-253 limits assumed): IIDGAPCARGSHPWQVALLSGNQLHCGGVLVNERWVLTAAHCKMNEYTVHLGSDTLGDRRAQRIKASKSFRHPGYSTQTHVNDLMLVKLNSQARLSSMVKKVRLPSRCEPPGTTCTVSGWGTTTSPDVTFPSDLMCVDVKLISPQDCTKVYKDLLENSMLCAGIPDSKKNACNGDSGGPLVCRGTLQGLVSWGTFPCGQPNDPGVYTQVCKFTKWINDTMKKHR

| SMILES | pIC50 (Kallikrein-5 [1]) | pKi (Kallikrein-7 [2]) | pIC50 (Kallikrein-7 [3]) | pKi (Kallikrein-5 [4]) | inhibition (Kallikrein-7 [5]) |
| --- | --- | --- | --- | --- | --- |
| COc1cc2c(OC)c3cc(C)oc(=O)c3c(O)c2c(O)c1-c1c(OC)cc2c(OC)c3cc(C)oc(=O)c3c(O)c2c1O | 4.14 | 4.91 | 3.95 | 4.61 | Active |
| COc1cc(O)c2c(O)c3c(=O)oc(C)cc3c(OC)c2c1 [PAEPALANTINE] | 3.43 | 4.15 | 3.78 | 4.32 |  |
| COc1cc2cc3c(c(O)c2c(O)c1-c1c(OC)cc2cc4c(c(O)c2c1O)C(=O)O[C@H](C)C4)C(=O)O[C@H](C)C3 [VIOXANTHIN] | 4.27 | 4.43 | 3.87 | 4.64 |  |

Reference: ChEMBL document CHEMBL1833973, “Biological evaluation and docking studies of natural isocoumarins as inhibitors for human kallikrein 5 and 7” (Bioorg Med Chem Lett, 2011)
